Results published in PMC4639751, “Development of 1-N-^11C-Methyl-L- and -D-Tryptophan for pharmacokinetic imaging of the immune checkpoint inhibitor 1-Methyl-Tryptophan” (Scientific Reports, 2015).

Tests used:
[1] = PET, rats, 60 min after injection
Procedure: Emission scans were acquired in three-dimensional list mode with an energy window of 350–650 keV under isoflurane anesthesia, from 0 to 60 min after radioprobe administration. All list-mode acquisition data were sorted into three-dimensional sinograms, which were then Fourier-rebinned into two-dimensional sonograms (frames × min: 4 × 1, 8 × 2, 8 × 5), and corrections for scanner dead time, randoms, and decay of the injected radioprobe. Dynamic images were reconstructed with filtered back-projection using a Hanning filter and a Nyquist cut-off of 0.5 cycles/pixel. Immediately after completion of PET scans, contrast-enhanced CT scans were performed in the rats by using the small-animal CT system (R_mCT2; Rigaku, Tokyo) after injection of 1 mL of non-ionic contrast medium (Iopamiron 370, Bayer, Osaka). The scan conditions included radiation parameters of 200 μA and 90 kV, FOV of 60 mm, and acquisition time of 34 s. CT images were collected, reconstructed, and observed using I-View-R software (Rigaku, The Woodlands, TX). Averaged CT attenuation images and dynamic PET images were reconstructed and fused using the Siemens Inveon Research Workplace (IRW) 4.0 software.
Regions of interest (ROI) in major organs and tissues were drawn in the PET/CT fusion images by manual outlining the organs and tissues in the CT images throughout the image slices by using IRW 4.0 software. The average radioactivity concentration was obtained from mean pixel values in the ROI volume. Regional uptake of radioactivity was decay-corrected to the injection time and expressed as the standardized uptake value (SUV), normalized for injected radioactivity and body weight. SUV was calculated as SUV = (radioactivity per cubic centimeter tissue/injected radioactivity) × body weight in grams. TACs of the radioprobes in individual organ and tissue were determined. Values of area under time-activity curves (AUC2–60 min, SUV × min) were calculated from 2 to 60 min post-injection to minimize the early perfusion effects.

[2] = Ex vivo metabolite studies; type: in vivo; settings: SD rats; for Ex vivo metabolite analysis, % of tailored L- and D-1MTrp entity in Brain / Ex vivo metabolite analysis, % of tailored L- and D-1MTrp entity in Pancreas / Ex vivo metabolite analysis, % of tailored L- and D-1MTrp entity in Plasma: HPLC, mean ± SEM, n = 4
Procedure: To validate the derivation of radioactivity into the relevant organs and tissues, we assessed the metabolites of both radiolabelled isomers in the blood, brain, and pancreas of rats. […] Few radioactive metabolites were detected in these three tissues at 15 and 60 min after ^11C-L-1MTrp and ^11C-D-1MTrp injection.
SD rats were injected with ^11C-L-1MTrp or ^11C-D-1MTrp (70–74 MBq, 0.4–0.6 nmol) via a lateral tail vein. The animals were sacrificed by cervical dislocation at 15 and 60 min after the injection. Blood was collected and centrifuged at 15000 rpm for 2 min at 4 °C to separate the plasma. Brain and pancreas were rapidly removed, then homogenized in equal volumes of 1 M HClO4 solution with a Silent Crusher S homogenizer (Heidolph Instruments). Plasma and homogenates of brain and pancreas from rats were deproteinized and then analyzed by HPLC as described in the stability assay in vitro.

[3] = Ex vivo biodistribution studies; settings: SD rats, mean ± SEM, n = 4
Source text: Major organs and tissues (blood, heart, lung, liver, pancreas, spleen, kidney, intestine, muscle, and brain), were promptly excised, harvested, and weighed. Radioactivity was counted using a γ-counter and expressed as a percentage of the injected dose per gram of wet tissue (%ID/g). All radioactivity measurements were corrected for decay.

[4] = In vitro stability assay in rat plasma; type: in vitro ADME; settings: 37 °C, 90 min incubation, HPLC analysis
Procedure: To determine the in vitro property of the two newly-developed radioprobes, we performed plasma stability studies by HPLC analysis at 37 °C for 90 min. […] More than 95% of ^11C-L-1Mtrp and ^11C-D-1Mtrp remained intact and no detectable metabolites were found at least 90 min after plasma incubation in vitro.
^11C-L-1MTrp and ^11C-D-1MTrp (70–74 MBq, 0.4−0.6 nmol) was dissolved in 2 mL of freshly isolated rat plasma and incubated at 37 °C for 90 min. After 0, 30, 60 and 90 min, an aliquot of 300 μL incubated mixture was taken, proteins in plasma were precipitated with equal volumes of 1 M HClO4 solution, followed by centrifugation at 15000 rpm for 2 min at 4 °C. The supernatant was collected and analyzed by HPLC (Capcell Pack UG80 column, 4.6 mm i.d. × 250 mm) with […] phosphate buffer/CH3CN (8.5/1.5, v/v) at a flow rate of 1 mL/min.

[11CH3]n1cc(C[C@H](N)C(=O)O)c2ccccc21 [^11C-L-1MTrp, 1-N-^11C-methyl-L-tryptophan]
SUV in the kidney ([1]; mean ± SEM, four rats): 0.94 ± 0.03 | SUV in the pancreas ([1]; mean ± SEM, four rats): 2.28 ± 0.28 | SUV in the liver, spleen, heart, blood, muscle, lung, brain and intestine ([1]; span over these organs): 0.43 ~ 0.70 | Radioactivity in the brain, pancreas, and blood associated with L- and D-1MTrp ([2]; 15 and 60 min after injection): more than 94% | Ex vivo metabolite analysis, % of tailored L- and D-1MTrp entity in Brain ([2]; 15 min after injection): 98.38 ± 0.34% | Ex vivo metabolite analysis, % of tailored L- and D-1MTrp entity in Pancreas ([2]; 15 min after injection): 94.73 ± 1.64% | Ex vivo metabolite analysis, % of tailored L- and D-1MTrp entity in Plasma ([2]; 15 min after injection): 97.67 ± 0.18% | Ex vivo metabolite analysis, % of tailored L- and D-1MTrp entity in Brain ([2]; 60 min after injection): 98.93 ± 0.51% | Ex vivo metabolite analysis, % of tailored L- and D-1MTrp entity in Pancreas ([2]; 60 min after injection): 95.88 ± 0.64% | Ex vivo metabolite analysis, % of tailored L- and D-1MTrp entity in Plasma ([2]; 60 min after injection): 98.44 ± 0.13% | Biodistribution, radioactivity in Blood ([3]; 1 min after injection): 1.34 ± 0.03 %ID/g tissue | Biodistribution, radioactivity in Brain ([3]; 1 min after injection): 0.14 ± 0.00 %ID/g tissue | Biodistribution, radioactivity in Heart ([3]; 1 min after injection): 1.13 ± 0.01 %ID/g tissue | Biodistribution, radioactivity in Intestine ([3]; 1 min after injection): 1.27 ± 0.05 %ID/g tissue | Biodistribution, radioactivity in Kidney ([3]; 1 min after injection): 2.60 ± 0.02 %ID/g tissue | Biodistribution, radioactivity in Liver ([3]; 1 min after injection): 1.51 ± 0.03 %ID/g tissue | Biodistribution, radioactivity in Lung ([3]; 1 min after injection): 0.98 ± 0.02 %ID/g tissue | Biodistribution, radioactivity in Muscle ([3]; 1 min after injection): 0.18 ± 0.02 %ID/g tissue | Biodistribution, radioactivity in Pancreas ([3]; 1 min after injection): 2.95 ± 0.23 %ID/g tissue | Biodistribution, radioactivity in Spleen ([3]; 1 min after injection): 0.98 ± 0.05 %ID/g tissue | Biodistribution, radioactivity in Blood ([3]; 5 min after injection): 0.65 ± 0.01 %ID/g tissue | Biodistribution, radioactivity in Brain ([3]; 5 min after injection): 0.20 ± 0.01 %ID/g tissue | Biodistribution, radioactivity in Heart ([3]; 5 min after injection): 0.64 ± 0.01 %ID/g tissue | Biodistribution, radioactivity in Intestine ([3]; 5 min after injection): 0.68 ± 0.01 %ID/g tissue | Biodistribution, radioactivity in Kidney ([3]; 5 min after injection): 1.64 ± 0.03 %ID/g tissue | Biodistribution, radioactivity in Liver ([3]; 5 min after injection): 0.73 ± 0.01 %ID/g tissue | Biodistribution, radioactivity in Lung ([3]; 5 min after injection): 0.62 ± 0.01 %ID/g tissue | Biodistribution, radioactivity in Muscle ([3]; 5 min after injection): 0.46 ± 0.01 %ID/g tissue | Biodistribution, radioactivity in Spleen ([3]; 5 min after injection): 0.61 ± 0.00 %ID/g tissue | Biodistribution, radioactivity in Blood ([3]; 15 min after injection): 0.54 ± 0.02 %ID/g tissue | Biodistribution, radioactivity in Brain ([3]; 15 min after injection): 0.27 ± 0.02 %ID/g tissue | Biodistribution, radioactivity in Heart ([3]; 15 min after injection): 0.54 ± 0.02 %ID/g tissue | Biodistribution, radioactivity in Intestine ([3]; 15 min after injection): 0.53 ± 0.02 %ID/g tissue | Biodistribution, radioactivity in Kidney ([3]; 15 min after injection): 1.11 ± 0.06 %ID/g tissue | Biodistribution, radioactivity in Liver ([3]; 15 min after injection): 0.61 ± 0.03 %ID/g tissue | Biodistribution, radioactivity in Lung ([3]; 15 min after injection): 0.50 ± 0.02 %ID/g tissue | Biodistribution, radioactivity in Muscle ([3]; 15 min after injection): 0.46 ± 0.02 %ID/g tissue | Biodistribution, radioactivity in Pancreas ([3]; 15 min after injection): 2.65 ± 0.16 %ID/g tissue | Biodistribution, radioactivity in Spleen ([3]; 15 min after injection): 0.55 ± 0.02 %ID/g tissue | Biodistribution, radioactivity in Blood ([3]; 30 min after injection): 0.50 ± 0.01 %ID/g tissue | Biodistribution, radioactivity in Brain ([3]; 30 min after injection): 0.30 ± 0.02 %ID/g tissue | Biodistribution, radioactivity in Heart ([3]; 30 min after injection): 0.49 ± 0.01 %ID/g tissue | Biodistribution, radioactivity in Intestine ([3]; 30 min after injection): 0.51 ± 0.00 %ID/g tissue | Biodistribution, radioactivity in Kidney ([3]; 30 min after injection): 0.86 ± 0.03 %ID/g tissue | Biodistribution, radioactivity in Liver ([3]; 30 min after injection): 0.55 ± 0.01 %ID/g tissue | Biodistribution, radioactivity in Lung ([3]; 30 min after injection): 0.45 ± 0.01 %ID/g tissue | Biodistribution, radioactivity in Muscle ([3]; 30 min after injection): 0.45 ± 0.01 %ID/g tissue | Biodistribution, radioactivity in Pancreas ([3]; 30 min after injection): 2.70 ± 0.17 %ID/g tissue | Biodistribution, radioactivity in Spleen ([3]; 30 min after injection): 0.51 ± 0.01 %ID/g tissue | Biodistribution, radioactivity in Blood ([3]; 60 min after injection): 0.50 ± 0.02 %ID/g tissue | Biodistribution, radioactivity in Brain ([3]; 60 min after injection): 0.31 ± 0.01 %ID/g tissue | Biodistribution, radioactivity in Heart ([3]; 60 min after injection): 0.47 ± 0.02 %ID/g tissue | Biodistribution, radioactivity in Intestine ([3]; 60 min after injection): 0.46 ± 0.02 %ID/g tissue | Biodistribution, radioactivity in Kidney ([3]; 60 min after injection): 0.74 ± 0.04 %ID/g tissue | Biodistribution, radioactivity in Liver ([3]; 60 min after injection): 0.54 ± 0.02 %ID/g tissue | Biodistribution, radioactivity in Lung ([3]; 60 min after injection): 0.43 ± 0.02 %ID/g tissue | Biodistribution, radioactivity in Muscle ([3]; 60 min after injection): 0.45 ± 0.02 %ID/g tissue | Biodistribution, radioactivity in Pancreas ([3]; 60 min after injection): 2.27 ± 0.05 %ID/g tissue | Biodistribution, radioactivity in Spleen ([3]; 60 min after injection): 0.48 ± 0.01 %ID/g tissue | Fraction remaining intact in rat plasma [4]: More than 95%

Cn1cc(C[C@H](N)C(=O)O)c2ccccc21 [L-1MTrp, 1-Methyl-L-tryptophan, reference compound]
SUV in the pancreas ([1]; mean ± SEM, four rats): 2.28 | Biodistribution, radioactivity in Pancreas ([3]; 60 min after injection): 2.27 %ID/g tissue
